Read-outs that look alike come from different tables or passages of the source.
Tests used:
human RORγ = target: T1, human RORγ (Homo sapiens, UniProt P51449); assay: Luciferase reporter gene assay of inhibitory effect against RORγ transcriptional activity (GAL4-hRORγ plasmid in CHO cells); assay type: cell-based
T1 construct: human, NM_005060.3 and from Ser253 to Lys518; expressed in transfected cells; host or cells: CHO cells (transient co-transfection with pG5-Luc reporter)
T1 sequence (P51449 253-518): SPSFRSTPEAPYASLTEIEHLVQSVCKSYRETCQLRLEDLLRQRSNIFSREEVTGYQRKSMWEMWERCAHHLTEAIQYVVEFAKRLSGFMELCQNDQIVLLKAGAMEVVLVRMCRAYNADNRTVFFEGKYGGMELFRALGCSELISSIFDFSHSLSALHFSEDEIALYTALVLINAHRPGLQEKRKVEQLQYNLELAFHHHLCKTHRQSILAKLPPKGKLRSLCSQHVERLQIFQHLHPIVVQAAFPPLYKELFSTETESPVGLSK

mouse RORγ = target: T2, mouse RORγ (Mus musculus, UniProt P51450); assay: Luciferase reporter gene assay of inhibitory effect against RORγ transcriptional activity (GAL4-mRORγ plasmid in CHO cells); assay type: cell-based
T2 construct: mouse, NM_011281.2 and from Ile251 to Lys516; expressed in transfected cells; host or cells: CHO cells (transient co-transfection with pG5-Luc reporter)
T2 sequence (P51450 251-516): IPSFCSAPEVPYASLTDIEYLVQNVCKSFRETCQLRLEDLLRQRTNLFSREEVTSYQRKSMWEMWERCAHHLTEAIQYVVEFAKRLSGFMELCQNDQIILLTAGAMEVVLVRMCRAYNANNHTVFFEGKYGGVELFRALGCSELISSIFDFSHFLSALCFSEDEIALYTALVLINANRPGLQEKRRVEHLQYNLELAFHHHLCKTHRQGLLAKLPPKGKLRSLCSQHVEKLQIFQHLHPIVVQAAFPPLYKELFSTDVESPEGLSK
Method in brief: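 CHO cells transiently co-transfected with GAL4-mouse RORγ LBD (Ile251–Lys516) and GAL4-dependent luciferase reporter; eight compound concentrations, 0.1% DMSO, 2 days at 37 °C. Luminescence as %-of-vehicle control; EC50 by curve fit, cytotoxic concentrations excluded.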

| Structure (SMILES) | EC50 (human RORγ; read-out: LUC EC50 (μM) hRORg) | EC50 (mouse RORγ; read-out: LUC EC50 (μM) mRORg) | EC50 (human RORγ; read-out: LUC EC50 hRORg) | EC50 (mouse RORγ; read-out: LUC EC50 mRORg) |
| --- | --- | --- | --- | --- |
| C#CCC(CC(=O)Nc1ccc(C)cc1C)c1nnc(CCCC(C)(C)C)n1C1CC1 (racemic) [Example F-437] | < 3 µM | < 3 µM |  |  |
| C=CC[C@H](CC(=O)Nc1ccc(C)cc1C)c1nnc(CCCC(C)(C)C)n1C1CC1 [Example F-381] | > 3 µM | < 3 µM |  |  |
| Cc1ccc(NC(=O)C(C)C(CCO)c2nnc([C@H]3C[C@@H](CC(C)C)C3)n2C2CC2)c(C)c1 (single isomer, unassigned) [Example F-491] | > 3 µM | < 3 µM |  |  |
| CC(C)(C)Cc1cc(-c2onc([C@@H](CCC(=O)O)CC(=O)Nc3ccc(Cl)cc3Cl)c2C2CC2)no1 [Example E-58, Sodium (S)-4-[4′-cyclopropyl-5-(2,2-dimethyl-propyl)-[3,5′]biisoxazolyl-3′-yl]-5-(2,4-dichloro-phenylcarbamoyl)-pentanoate] | < 3 µM | < 3 µM |  |  |
| Cc1ccc(NC(=O)C[C@@H](c2nnc(CCCC(C)(C)C)n2C2CC2)N2CCCC2=O)c(C)c1 [Example F-403] | < 3 µM | < 3 µM |  |  |
| CC(C)n1c(CCC(=O)Nc2cccc3ccccc23)nnc1C1Cc2ccccc2C1 [Example F-6] | > 3 µM | > 3 µM |  |  |
| CC(C)C[C@H]1C[C@@H](c2nnc([C@@H](CCO)CC(=O)Nc3ccc(C(F)(F)F)cc3C(F)(F)F)n2C2CC2)C1 [Example F-524] |  |  | < 3 µM | < 3 µM |
| COc1ccc(C)c(NC(=O)CCc2nnc(CCC(C)C)n2C2CC2)c1 [Example F-92] | > 3 µM | > 3 µM |  |  |
| Cc1ccc(NC(=O)CCc2nnc([C@H]3C[C@H](CC(C)C)C3)n2C2CC2)c(C)c1 [Example F-357] | < 3 µM | < 3 µM |  |  |
| Cc1ccc(NC(=O)CCc2noc(C(F)(F)c3cc(C(C)(C)C)no3)c2C2CC2)c(Cl)c1 [Example F-740] |  |  | < 3 µM | < 3 µM |
| Cc1ccc(NC(=O)C[C@H](CCC(=O)O)c2noc(-c3cn(CCC(C)(C)C)nc3C(F)(F)F)c2C2CC2)c(F)c1 [Example E-19] | > 3 µM | > 3 µM |  |  |
| Cc1ccc(NC(=O)CC(CC(=O)N(C)C)c2nnc(CCCC(C)C)n2C2CC2)c(C)c1 (racemic) [Example F-266] | < 3 µM | < 3 µM |  |  |
| CC(=O)N1C[C@@H](C(=O)Nc2ccc(C)cc2C)[C@H](c2nnc([C@H]3C[C@H](OC(C)C)C3)n2C2CC2)C1 [Example F-335] | > 3 µM | > 3 µM |  |  |
| Cc1ccc(NC(=O)[C@H]2CN(C)C[C@@H]2c2nnc(-c3cc(CC(C)C)on3)n2C2CC2)c(C)c1 [Example F-618] |  |  | < 3 µM | < 3 µM |
| Cc1ccc(NC(=O)C[C@@H](CCCO)c2nnc([C@H]3C[C@@H](CC(C)C)C3)n2C2CC2)c(C)c1 [Example F-510] |  |  | > 3 µM | > 3 µM |
| CC(=O)N1C[C@H](C(=O)Nc2cccc(Cl)c2C)[C@@H](c2nnc(CCC(C)C)n2C2CC2)C1 (racemic) [Example F-145] | < 3 µM | < 3 µM |  |  |
| Cc1ccc(NC(=O)C[C@H](CCC(=O)O)c2noc(-c3cc(CCC(C)(C)C)on3)c2C2CC2)c(F)c1 [Example E-31] | < 3 µM | < 3 µM |  |  |
| Cc1c(Cl)cccc1NC(=O)CCc1nnc(CCC2CCCN(C)C2)n1C1CC1 (racemic) [Example F-203] | > 3 µM | > 3 µM |  |  |
| COc1ccc(NC(=O)CCc2nnc(CCC(C)C)n2C2CC2)c(C)c1 [Example F-82] | > 3 µM | > 3 µM |  |  |
| CC(=O)N1C[C@H](C(=O)Nc2ccc(C)cc2C)[C@@H](c2nnc([C@H]3C[C@@H](CC(C)(C)C)C3)n2C2CC2)C1 [Example F-461] | < 3 µM | < 3 µM |  |  |
| Cc1ccc(NC(=O)C[C@@H](CCO)c2nnc(CCCC(C)C)n2C2CC2)c(C)c1 [Example F-313] | > 3 µM | > 3 µM |  |  |
| CCn1c(CCC(=O)Nc2cc(C)cc(C)c2)nnc1CCC1CCCC1 [Example F-49] | > 3 µM | > 3 µM |  |  |
| Cc1ccc(NC(=O)C[C@H](CCC(=O)O)c2noc(-c3cc(CCC(C)(C)C)on3)c2C2CC2)c(C)c1 [Example E-32] | < 3 µM | < 3 µM |  |  |
| CC(=O)N1C[C@H](C(=O)Nc2ccc(C)cc2C)[C@@H](c2nnc([C@H]3CC[C@H](C(C)C)CC3)n2C2CC2)C1 (racemic) [Example F-300] | < 3 µM | < 3 µM |  |  |
| CCOC(=O)CO[C@@H](CC(=O)Nc1ccc(C)cc1C)c1nnc([C@H]2C[C@@H](CC(C)C)C2)n1C1CC1 [Example F-433] | < 3 µM | < 3 µM |  |  |

| Structure (SMILES) | EC50 (human RORγ; read-out: LUC EC50 (μM) hRORg) | EC50 (mouse RORγ; read-out: LUC EC50 (μM) mRORg) | EC50 (human RORγ; read-out: LUC EC50 hRORg) | EC50 (mouse RORγ; read-out: LUC EC50 mRORg) |
| --- | --- | --- | --- | --- |
| CCn1c(CCC(=O)Nc2cccc3ccccc23)nnc1C1CCCCC1 [Example F-20] | > 3 µM | > 3 µM |  |  |
| Cc1ncccc1NC(=O)CCc1nnc(CCC(C)C)n1C1CC1 [Example F-91] | > 3 µM | > 3 µM |  |  |
| Cc1ccc(NC(=O)C[C@H](CCC(=O)O)c2onc(-c3cc(CC(C)(C)C)on3)c2C2CC2)c(Cl)c1 [Example E-75] | < 3 µM | < 3 µM |  |  |
| CCn1c(CCC(=O)Nc2ccc(C)cc2C)nnc1CCC1CCCC1 [Example F-48] | > 3 µM | < 3 µM |  |  |
| CC(=O)N1C[C@@H](C(=O)Nc2ccc(C)cc2C)[C@H](c2nnc(-c3ccc(C(C)C)cc3)n2C2CC2)C1 [Example F-372] | > 3 µM | > 3 µM |  |  |
| Cc1ccc(NC(=O)[C@H]2CN(C(=O)CN(C)C)C[C@@H]2c2nnc([C@H]3C[C@@H](CC(C)C)C3)n2C2CC2)c(C)c1 [Example F-657] |  |  | > 3 µM | < 3 µM |
| CCN(CC)C(=O)CN1C[C@H](C(=O)Nc2ccc(C)cc2C)[C@@H](c2nnc([C@H]3C[C@@H](CC(C)(C)C)C3)n2C2CC2)C1 [Example F-649] |  |  | < 3 µM | < 3 µM |
| Cc1ccc(NC(=O)CC(CC(C)C)c2nnc(CCCC(C)(C)C)n2C2CC2)c(C)c1 (racemic) [Example F-438] | < 3 µM | < 3 µM |  |  |
| Cc1cc(Cl)ccc1NC(=O)C[C@H](OC(C)C)c1nnc(-c2cc(CC(C)C)on2)n1C1CC1 [Example F-614] |  |  | < 3 µM | < 3 µM |
| CC(=O)NCC(CC(=O)Nc1ccc(C)cc1C)c1nnc(CCCC(C)C)n1C1CC1 (racemic) [Example F-277] | > 3 µM | < 3 µM |  |  |
| Cc1ccc(NC(=O)[C@H]2CN(C(=O)OC(C)(C)C)C[C@@H]2c2nnc([C@H]3C[C@@H](CC(C)(C)C)C3)n2C2CC2)c(C)c1 [Example F-540] |  |  | < 3 µM | < 3 µM |
| Cc1ccc(NC(=O)C[C@H](CCC(=O)O)c2noc(-c3ccc(CC(C)C)o3)c2C2CC2)c(Cl)c1 [Example E-28] | < 3 µM | < 3 µM |  |  |
| CC(=O)N1C[C@H](C(=O)Nc2ccc(Cl)cc2F)[C@@H](c2nnc([C@H]3C[C@@H](CC(C)C)C3)n2C2CC2)C1 [Example F-604] |  |  | < 3 µM | < 3 µM |
| COc1cc(C)ccc1CNC(=O)CCc1noc(C(F)(F)c2cc(C(C)(C)C)no2)c1C1CC1 [Example F-741] |  |  | < 3 µM | < 3 µM |
| CC(=O)N1C[C@H](C(=O)Nc2ccc(C)cc2C)[C@@H](c2nnc(CCCC(C)(C)C)n2CC(F)(F)F)C1 (racemic) [Example F-356] | < 3 µM | < 3 µM |  |  |
| CCC(CC)C[C@H]1C[C@@H](c2nnc(CCC(=O)Nc3ccc(C)cc3C)n2C2CC2)C1 [Example F-496] |  |  | < 3 µM | < 3 µM |
| CCn1c(CCC2CCCCC2)nnc1[C@H]1C[C@@H]1C(=O)Nc1cccc2ccccc12 (racemic) [Example F-36] | > 3 µM | > 3 µM |  |  |
| Cc1ccc(NC(=O)CCc2nnc([C@H]3C[C@H](CC4CCCC4)C3)n2C2CC2)c(C)c1 [Example F-423] | < 3 µM | < 3 µM |  |  |
| CC1(Cc2cc(-c3onc([C@@H](CCC(=O)O)CC(=O)Nc4ccc(Cl)cc4F)c3C3CC3)no2)CC1 [Example E-64] | < 3 µM | < 3 µM |  |  |
| Cc1ccc(NC(=O)C[C@H](CCC(=O)O)c2noc(-c3nc(C)c(CC(C)C)s3)c2C2CC2)c(Cl)c1 [Example E-27] | < 3 µM | < 3 µM |  |  |
| Cc1ccc(NC(=O)[C@H]2CN(C(C)C)C[C@@H]2c2nnc([C@H]3C[C@@H](CC(C)C)C3)n2C2CC2)c(C)c1 [Example F-597] |  |  | < 3 µM | < 3 µM |
| CCn1c(CCC(=O)Nc2cccc3ccccc23)nnc1CC1CCCCC1 [Example F-17] | > 3 µM | < 3 µM |  |  |
| Cc1c(Cl)cccc1NC(=O)CCc1nnc(CCCC(C)(C)C(=O)O)n1C1CC1 [Example F-232] | > 3 µM | > 3 µM |  |  |
| Cc1ccc(NC(=O)[C@H]2CN(S(=O)(=O)C(F)(F)F)C[C@@H]2c2nnc(CCCC(C)(C)C)n2C2CC2)c(C)c1 (racemic) [Example F-398] | < 3 µM | < 3 µM |  |  |

— patent US20160137639A1, “TRIAZOLE-ISOXAZOLE COMPOUND AND MEDICAL USE THEREOF” (JAPAN TOBACCO INC., priority 2012, published 2016)
